According to patent US20100190788A1, “Amide derivatives as kinase inhitors” (priority 2005, published 2010):
Counter-ions that a name gives are not always drawn.

Target: T1, human ROCKα/ROCKII mix (Homo sapiens, UniProt O75116)
T1 construct: purchased Upstate Biotechnology 14-451
Test: ROCK inhibition, fluorescence polarization (FP) assay with ROCK IMAP Kit
Assay type: biochemical
Details: Table 4, compounds 132 to 156

T1 sequence (O75116 whole entry): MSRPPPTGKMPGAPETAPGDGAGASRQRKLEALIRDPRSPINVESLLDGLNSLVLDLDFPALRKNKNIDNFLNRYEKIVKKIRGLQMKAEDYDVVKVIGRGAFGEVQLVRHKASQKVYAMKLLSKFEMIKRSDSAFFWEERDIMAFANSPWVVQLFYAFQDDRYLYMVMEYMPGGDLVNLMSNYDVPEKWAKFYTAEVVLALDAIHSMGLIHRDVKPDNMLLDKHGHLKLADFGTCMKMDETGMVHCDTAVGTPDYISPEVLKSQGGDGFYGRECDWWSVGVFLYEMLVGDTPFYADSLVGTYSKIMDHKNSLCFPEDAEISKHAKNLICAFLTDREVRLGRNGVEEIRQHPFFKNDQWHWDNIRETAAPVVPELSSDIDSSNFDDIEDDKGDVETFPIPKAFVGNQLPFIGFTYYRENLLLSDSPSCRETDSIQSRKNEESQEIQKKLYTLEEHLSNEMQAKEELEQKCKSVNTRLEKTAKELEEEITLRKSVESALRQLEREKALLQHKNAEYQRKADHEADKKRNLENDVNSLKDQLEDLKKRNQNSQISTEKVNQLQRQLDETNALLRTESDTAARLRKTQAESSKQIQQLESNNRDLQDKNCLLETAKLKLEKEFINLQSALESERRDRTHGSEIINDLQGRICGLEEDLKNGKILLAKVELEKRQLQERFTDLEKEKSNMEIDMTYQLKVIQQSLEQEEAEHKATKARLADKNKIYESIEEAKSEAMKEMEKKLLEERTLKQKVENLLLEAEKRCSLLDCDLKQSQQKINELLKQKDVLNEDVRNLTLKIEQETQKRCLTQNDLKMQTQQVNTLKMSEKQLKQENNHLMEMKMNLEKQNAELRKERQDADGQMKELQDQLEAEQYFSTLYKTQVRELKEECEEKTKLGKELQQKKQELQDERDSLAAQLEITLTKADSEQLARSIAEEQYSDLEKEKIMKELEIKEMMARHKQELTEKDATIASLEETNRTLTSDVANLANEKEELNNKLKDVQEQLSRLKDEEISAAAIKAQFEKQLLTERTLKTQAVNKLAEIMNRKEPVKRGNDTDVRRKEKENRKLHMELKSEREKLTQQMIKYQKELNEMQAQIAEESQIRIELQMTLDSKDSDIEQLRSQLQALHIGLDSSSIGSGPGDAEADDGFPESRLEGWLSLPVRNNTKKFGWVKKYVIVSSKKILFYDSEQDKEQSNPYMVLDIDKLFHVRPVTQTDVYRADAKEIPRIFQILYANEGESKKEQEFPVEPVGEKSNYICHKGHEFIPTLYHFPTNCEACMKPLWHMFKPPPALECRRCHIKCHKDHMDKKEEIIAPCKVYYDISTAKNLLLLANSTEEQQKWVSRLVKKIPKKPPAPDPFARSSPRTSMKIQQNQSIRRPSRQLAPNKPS

Row | IC50 | SMILES
1 | 0.5 to 5 µM | NC(c1ccc(C(=O)Nc2ccncc2)cc1)C1CCCN1S(=O)(=O)c1ccccc1F (stereo not shown) [Compound 136, 4-{Amino-[1-(2-fluoro-benzenesulfonyl)-pyrrolidin-2-yl]-methyl}-N-pyridin-4-yl-benzamide dihydrochloric acid salt]
2 | 0.5 to 5 µM | NC(c1ccc(C(=O)Nc2ccncc2)cc1)C1CCCN1S(=O)(=O)c1cccc(F)c1 (stereo not shown) [Compound 137, 4-{Amino-[1-(3-fluoro-benzenesulfonyl)-pyrrolidin-2-yl]-methyl}-N-pyridin-4-yl-benzamide dihydrochloric acid salt]
3 | 0.5 to 5 µM | NC(c1ccc(C(=O)Nc2ccncc2)cc1)C1CCCN1S(=O)(=O)c1ccc(F)cc1 (stereo not shown) [Compound 138, 4-{Amino-[1-(4-fluoro-benzenesulfonyl)-pyrrolidin-2-yl]-methyl}-N-pyridin-4-yl-benzamide dihydrochloric acid salt]
4 | 0.5 to 5 µM | CN(CC(N)c1ccc(C(=O)Nc2ccncc2)cc1)S(=O)(=O)c1ccccc1 (stereo not shown) [Compound 139, 4-[1-Amino-2-(benzenesulfonyl-methyl-amino)-ethyl]-N-pyridin-4-yl-benzamide dihydrochloric acid salt]
5 | 0.5 to 5 µM | CN(CC(N)c1ccc(C(=O)Nc2ccncc2)cc1)S(=O)(=O)c1ccc(F)cc1 (stereo not shown) [Compound 140, 4-{1-Amino-2-[(4-fluoro-benzenesulfonyl)-methyl-amino]-ethyl}-N-pyridin-4-yl-benzamide dihydrochloric acid salt]
6 | 0.5 to 5 µM | CN(CC(N)c1ccc(C(=O)Nc2ccncc2)cc1)S(=O)(=O)c1cccc(F)c1 (stereo not shown) [Compound 141, 4-{1-Amino-2-[(3-fluoro-benzenesulfonyl)-methyl-amino]-ethyl}-N-pyridin-4-yl-benzamide dihydrochloric acid salt]
7 | 0.5 to 5 µM | CN(CC(N)c1ccc(C(=O)Nc2ccncc2)cc1)S(=O)(=O)c1ccccc1F (stereo not shown) [Compound 142, 4-{1-Amino-2-[(2-fluoro-benzenesulfonyl)-methyl-amino]-ethyl}-N-pyridin-4-yl-benzamide dihydrochloric acid salt]
8 | 0.5 to 5 µM | CN(CC(N)c1ccc(C(=O)Nc2ccncc2)cc1)S(=O)(=O)c1ccccc1Cl (stereo not shown) [Compound 143, 4-{1-Amino-2-[(2-chloro-benzenesulfonyl)-methyl-amino]-ethyl}-N-pyridin-4-yl-benzamide dihydrochloric acid salt]
9 | 0.5 to 5 µM | CN(CC(N)c1ccc(C(=O)Nc2ccncc2)cc1)S(=O)(=O)c1cccc(Cl)c1 (stereo not shown) [Compound 144, 4-{1-Amino-2-[(3-chloro-benzenesulfonyl)-methyl-amino]-ethyl}-N-pyridin-4-yl-benzamide dihydrochloric acid salt]
10 | 0.5 to 5 µM | CN(CC(N)c1ccc(C(=O)Nc2ccncc2)cc1)S(=O)(=O)c1ccc(Cl)cc1 (stereo not shown) [Compound 145, 4-{1-Amino-2-[(4-chloro-benzenesulfonyl)-methyl-amino]-ethyl}-N-pyridin-4-yl-benzamide dihydrochloric acid salt]
11 | < 0.5 µM | COc1ccc(S(=O)(=O)N(C)CC(N)c2ccc(C(=O)Nc3ccncc3)cc2)cc1 (stereo not shown) [Compound 146, 4-{1-Amino-2-[(4-methoxy-benzenesulfonyl)-methyl-amino]-ethyl}-N-pyridin-4-yl-benzamide dihydrochloric acid salt]
12 | < 0.5 µM | N[C@H](CC(=O)N1CCC[C@@H]1c1cccc(F)c1)c1ccc(C(=O)Nc2ccncc2)cc1 [Compound 149, 4-{(R)-1-Amino-3-[(R)-2-(3-fluoro-phenyl)-pyrrolidin-1-yl]-3-oxo-propyl}-N-pyridin-4-yl-benzamide dihydrochloric acid salt]
13 | < 0.5 µM | N[C@H](CC(=O)N1CCC[C@H]1c1cccc(F)c1)c1ccc(C(=O)Nc2ccncc2)cc1 [Compound 150, 4-{(R)-1-Amino-3-[(S)-2-(3-fluoro-phenyl)-pyrrolidin-1-yl]-3-oxo-propyl}-N-pyridin-4-yl-benzamide dihydrochloric acid salt]
14 | < 0.5 µM | N[C@@H](CC(=O)N1CCC[C@@H]1c1cccc(F)c1)c1ccc(C(=O)Nc2ccncc2)cc1 [Compound 151, 4-{(S)-1-Amino-3-[(R)-2-(3-fluoro-phenyl)-pyrrolidin-1-yl]-3-oxo-propyl}-N-pyridin-4-yl-benzamide dihydrochloric acid salt]
15 | < 0.5 µM | N[C@@H](CC(=O)N1CCC[C@H]1c1cccc(F)c1)c1ccc(C(=O)Nc2ccncc2)cc1 [Compound 152, 4-{(S)-1-Amino-3-[(S)-2-(3-fluoro-phenyl)-pyrrolidin-1-yl]-3-oxo-propyl}-N-pyridin-4-yl-benzamide dihydrochloric acid salt]
16 | 5 to 50 µM | COc1ccc(S(=O)(=O)N(C)C[C@H](N)c2ccc(C(=O)Nc3ccncc3)cc2)cc1 [Compound 153, 4-{(R)1-Amino-2-[(4-methoxy-benzenesulfonyl)-methyl-amino]-ethyl}-N-pyridin-4-yl-benzamide dihydrochloric acid salt]
17 | < 0.5 µM | COc1ccc(S(=O)(=O)N(C)C[C@@H](N)c2ccc(C(=O)Nc3ccncc3)cc2)cc1 [Compound 154, 4-{(S)1-Amino-2-[(4-methoxy-benzenesulfonyl)-methyl-amino]-ethyl}-N-pyridin-4-yl-benzamide dihydrochloric acid salt]
18 | < 0.5 µM | N[C@H](C(=O)NCc1ccccc1)c1ccc(C(=O)Nc2ccncc2)cc1 [Compound 155, 4-((S)-Amino-benzylcarbamoyl-methyl)-N-pyridin-4-yl-benzamide dihydrochloric acid salt]
19 | 0.5 to 5 µM | N[C@@H](C(=O)NCc1ccccc1)c1ccc(C(=O)Nc2ccncc2)cc1 [Compound 156, 4-((R)-Amino-benzylcarbamoyl-methyl)-N-pyridin-4-yl-benzamide dihydrochloric acid salt]
